Source: BigSolDB 2.1

CC(CCC(=O)O)(c1ccc(O)cc1)c1ccc(O)cc1
Details	solubility (mole fraction)
in acetone, 288.15 K	0.125
in acetone, 291.15 K	0.127
in acetone, 294.15 K	0.13
in acetone, 297.15 K	0.134
in acetone, 300.15 K	0.137
in acetone, 303.15 K	0.14
in acetone, 306.15 K	0.143
in acetone, 309.15 K	0.146
in acetone, 312.15 K	0.15
in acetone, 315.15 K	0.153
in acetone, 318.15 K	0.157
in acetonitrile, 288.15 K	0.00804
in acetonitrile, 291.15 K	0.00871
in acetonitrile, 294.15 K	0.00973
in acetonitrile, 297.15 K	0.0106
in acetonitrile, 300.15 K	0.0116
in acetonitrile, 303.15 K	0.013
in acetonitrile, 306.15 K	0.0144
in acetonitrile, 309.15 K	0.0162
in acetonitrile, 312.15 K	0.0181
in acetonitrile, 315.15 K	0.0208
in acetonitrile, 318.15 K	0.0238
in ethanol, 288.15 K	0.0989
in ethanol, 291.15 K	0.103
in ethanol, 294.15 K	0.107
in ethanol, 297.15 K	0.11
in ethanol, 300.15 K	0.114
in ethanol, 303.15 K	0.118
in ethanol, 306.15 K	0.123
in ethanol, 309.15 K	0.129
in ethanol, 312.15 K	0.136
in ethanol, 315.15 K	0.142
in ethanol, 318.15 K	0.148
in ethyl acetate, 288.15 K	0.0498
in ethyl acetate, 291.15 K	0.0509
in ethyl acetate, 294.15 K	0.052
in ethyl acetate, 297.15 K	0.0533
in ethyl acetate, 300.15 K	0.0553
in ethyl acetate, 303.15 K	0.0576
in ethyl acetate, 306.15 K	0.0604
in ethyl acetate, 309.15 K	0.0637
in ethyl acetate, 312.15 K	0.0667
in ethyl acetate, 315.15 K	0.0696
in ethyl acetate, 318.15 K	0.0727
in ethyl formate, 288.15 K	0.0113
in ethyl formate, 291.15 K	0.0116
in ethyl formate, 294.15 K	0.012
in ethyl formate, 297.15 K	0.0127
in ethyl formate, 300.15 K	0.0136
in ethyl formate, 303.15 K	0.0146
in ethyl formate, 306.15 K	0.0155
in ethyl formate, 309.15 K	0.0166
in ethyl formate, 312.15 K	0.0183
in ethyl formate, 315.15 K	0.0202
in ethyl formate, 318.15 K	0.0221
in isopropanol, 288.15 K	0.063
in isopropanol, 291.15 K	0.0631
in isopropanol, 294.15 K	0.0634
in isopropanol, 297.15 K	0.0637
in isopropanol, 300.15 K	0.0651
in isopropanol, 303.15 K	0.0665
in isopropanol, 306.15 K	0.0687
in isopropanol, 309.15 K	0.0718
in isopropanol, 312.15 K	0.077
in isopropanol, 315.15 K	0.0829
in isopropanol, 318.15 K	0.0914
in methanol, 288.15 K	0.096
in methanol, 291.15 K	0.0983
in methanol, 294.15 K	0.101
in methanol, 297.15 K	0.104
in methanol, 300.15 K	0.106
in methanol, 303.15 K	0.11
in methanol, 306.15 K	0.114
in methanol, 309.15 K	0.119
in methanol, 312.15 K	0.123
in methanol, 315.15 K	0.127
in methanol, 318.15 K	0.131
in methyl acetate, 288.15 K	0.0453
in methyl acetate, 291.15 K	0.0477
in methyl acetate, 294.15 K	0.0497
in methyl acetate, 297.15 K	0.0526
in methyl acetate, 300.15 K	0.0559
in methyl acetate, 303.15 K	0.0594
in methyl acetate, 306.15 K	0.063
in methyl acetate, 309.15 K	0.0668
in methyl acetate, 312.15 K	0.0713
in methyl acetate, 315.15 K	0.0775
in methyl acetate, 318.15 K	0.085
in n-butanol, 288.15 K	0.0712
in n-butanol, 291.15 K	0.0763
in n-butanol, 294.15 K	0.0814
in n-butanol, 297.15 K	0.0867
in n-butanol, 300.15 K	0.0919
in n-butanol, 303.15 K	0.0971
in n-butanol, 306.15 K	0.102
in n-butanol, 309.15 K	0.107
in n-butanol, 312.15 K	0.112
in n-butanol, 315.15 K	0.116
in n-butanol, 318.15 K	0.12
in n-butyl acetate, 288.15 K	0.0117
in n-butyl acetate, 291.15 K	0.0143
in n-butyl acetate, 294.15 K	0.0169
in n-butyl acetate, 297.15 K	0.0199
in n-butyl acetate, 300.15 K	0.0227
in n-butyl acetate, 303.15 K	0.0258
in n-butyl acetate, 306.15 K	0.029
in n-butyl acetate, 309.15 K	0.0325
in n-butyl acetate, 312.15 K	0.0356
in n-butyl acetate, 315.15 K	0.039
in n-butyl acetate, 318.15 K	0.0428
in n-propanol, 288.15 K	0.0352
in n-propanol, 291.15 K	0.0384
in n-propanol, 294.15 K	0.0416
in n-propanol, 297.15 K	0.046
in n-propanol, 300.15 K	0.0502
in n-propanol, 303.15 K	0.0541
in n-propanol, 306.15 K	0.0588
in n-propanol, 309.15 K	0.0631
in n-propanol, 312.15 K	0.0671
in n-propanol, 315.15 K	0.0732
in n-propanol, 318.15 K	0.0803
in n-propyl acetate, 288.15 K	0.0291
in n-propyl acetate, 291.15 K	0.0298
in n-propyl acetate, 294.15 K	0.0309
in n-propyl acetate, 297.15 K	0.032
in n-propyl acetate, 300.15 K	0.0336
in n-propyl acetate, 303.15 K	0.0358
in n-propyl acetate, 306.15 K	0.0379
in n-propyl acetate, 309.15 K	0.0403
in n-propyl acetate, 312.15 K	0.0433
in n-propyl acetate, 315.15 K	0.0472
in n-propyl acetate, 318.15 K	0.0507
in sec-butanol, 288.15 K	0.0823
in sec-butanol, 291.15 K	0.0876
in sec-butanol, 294.15 K	0.0926
in sec-butanol, 297.15 K	0.0978
in sec-butanol, 300.15 K	0.103
in sec-butanol, 303.15 K	0.11
in sec-butanol, 306.15 K	0.117
in sec-butanol, 309.15 K	0.124
in sec-butanol, 312.15 K	0.129
in sec-butanol, 315.15 K	0.135
in sec-butanol, 318.15 K	0.14
